Experimental findings from ChEMBL document CHEMBL5579796, “Inhibition of dengue viruses by N-methylcytisine thio derivatives through targeting viral envelope protein and NS2B-NS3 protease” (Bioorg Med Chem Lett, 2024) are described below.

In data set [1] the test system is dengue virus type 2. The experiment in a line: Antiviral activity against DENV-2 16,681 infected in Vero E6 cells assessed as reduction in virus induced cytopathic effect at 10 uM incubated for 4 days by inverted microscopic analysis. As to conditions: time 4.0 day. The class given is functional, organism-based. On the technique in general: Damage to the host cells serves as the signal in cytopathic effect assays.

Data set [2] has as its system dengue virus type 2. Kind of data set: Antiviral activity against DENV-2 16,681 infected in Vero E6 cells assessed as reduction in viral infectivity by measuring NS4B-positive cells pretreated with virus for 1 hr followed by compound addition for 1 hr prior to washout and measured after 96 hrs by immunofluorescence analysis. The format is functional, organism-based. As to conditions: Dengue virus, 16,681, Vero C1008.

Data set [3] deals with dengue virus type 2. Kind of data set: Antiviral activity against DENV-2 16,681 infected in Vero E6 cells assessed as reduction in viral infection by measuring NS4B positive cells at 10 uM incubated for 4 days by immunofluorescence assay. The class given is functional. Also noted: scale not given: the % may be the effect or the level left. As to conditions: time 4 day.
Data set [4] deals with dengue virus type 2. The experiment in a line: Antiviral activity against DENV-2 16,681 infected in Vero E6 cells assessed as reduction in virus induced cytopathic effect measured after 96 hrs by inverted microscopic analysis. The class given is functional, organism-based. The conditions noted are these: Dengue virus, 16,681, Vero C1008, 96 h.
Data set [5] relates to dengue virus type 2. The experiment in a line: Antiviral activity against DENV-2 16,681 infected in Vero E6 cells assessed as reduction in viral infectivity by measuring NS4B-positive cells pretreated with compound for 1 hr followed by viral infection and washout measured after 96 hrs by immunofluorescence analysis. The class given is functional, organism-based. As to conditions: Dengue virus, 16,681, Vero C1008.

A short description of data set [6]: Cytotoxicity against african green monkey Vero E6 cells by MTT assay. The class given is toxicity, cell-based, Vero C1008. As to conditions: chlorocebus sabaeus. In general terms: Formazan colour is commonly taken as a measure of viable cells.
For data set [7], the system named is dengue virus type 2. The experiment in a line: Antiviral activity against DENV-2 16,681 infected in Vero E6 cells assessed as reduction in viral infectivity by measuring NS4B-positive cells at 0.1 uM incubated for 1 hr followed by washout and measured after 96 hrs by immunofluorescence analysis. The class given is functional. On the set-up: scale not given: the % may be the effect or the level left.

A short description of data set [8]: Selectivity index, ratio of CC50 for human A549 cells to EC50 for antiviral activity against DENV-2 16,681 infected in A549 cells. The format is toxicity, cell-based. The conditions noted are these: read-out: Ratio CC50/EC50.
A short description of data set [9]: Cytotoxicity against human A549 cells by MTT assay. The format is toxicity, cell-based.
In data set [10] the test system is dengue virus type 2. Kind of data set: Antiviral activity against DENV-2 16,681 infected in Vero E6 cells assessed as reduction in viral infectivity by measuring NS4B-positive cells at 10 uM pretreated with compound for 1 hr followed by viral infection and washout measured after 96 hrs by immunofluorescence analysis. The class given is functional. Also noted: scale not given: the % may be the effect or the level left.

In data set [11] the test system is dengue virus type 2. Kind of data set: Antiviral activity against DENV-2 16,681 infected in Vero E6 cells assessed as reduction in viral infectivity by measuring NS4B-positive cells at 1 uM pretreated with virus for 1 hr followed by compound addition for 1 hr prior to washout and measured after 96 hrs by immunofluorescence analysis. The format is functional.
Data set [12] in a line: Selectivity index, ratio of CC50 for african green monkey Vero E6 cells to EC50 for antiviral activity against DENV-2 16,681 infected in Vero E6 cells. The class given is toxicity, cell-based. The conditions noted are these: read-out: Ratio CC50/EC50.
The test system of data set [13] is dengue virus type 2. Kind of data set: Antiviral activity against DENV-2 16,681 infected in Vero E6 cells assessed as reduction in viral infectivity by measuring NS4B-positive cells incubated for 1 hr followed by washout and measured after 96 hrs by immunofluorescence analysis. The format is functional, organism-based. The conditions noted are these: Dengue virus, 16,681, Vero C1008.

The subject of data set [14] is dengue virus type 2. Kind of data set: Antiviral activity against DENV-2 16,681 infected in A549 cells assessed as reduction in virus induced cytopathic effect measured after 96 hrs by inverted microscopic analysis. The class given is functional, organism-based. As to conditions: Dengue virus, 16,681, A549, 96 h.
In data set [15] the test system is dengue virus type 2. Kind of data set: Antiviral activity against DENV-2 16,681 infected in Vero E6 cells assessed as reduction in viral infectivity by measuring NS4B-positive cells incubated for 1 hr followed by washout and subsequent culturing. The class given is functional, organism-based. The conditions noted are these: Dengue virus, 16,681, Vero C1008, 1 h.

A further data set deals with Genome polyprotein (dengue virus type 2, UniProt P29990). The experiment in a line: Inhibition of DENV-2 NS2B/NS3 protease expressed in HEK293 cells cotransfected with CFP-trrg-YFP incubated for 24 hrs by FRET assay. The format is cell-based.

Active and inactive are the calls of the source. No cut-off for these calls is given here.

The EC50 is the concentration giving half of the maximal effect. Broadly, the CC50 is the concentration at which the toxic effect on the cells reaches its halfway point. One may read the IC50 as the concentration needed to halve the response being measured. `CN1C[C@@H]2C[C@H](C1)c1cccc(=S)n1C2`: the result in the data set on dengue virus type 2 [1] was Active. The EC50 in the data set with dengue virus type 2 [2] was 4080 nM; with dengue virus type 2 [4], 940 nM; with dengue virus type 2 [5] it was more than 10 µM; with dengue virus type 2 [13] it was 110 nM; with dengue virus type 2 [14] it was 2110 nM; with dengue virus type 2 [15] it was 1020 nM. Moreover, the Activity was 88.7% in the data set on dengue virus type 2 [3], more than 50% in the data set on dengue virus type 2 [7] and less than 40% in the data set on dengue virus type 2 [10]. The CC50 in data set [6] and in data set [9] was more than 50 µM each time. In addition, the selectivity ratio in [8] is more than 23.7; in [12], more than 53.2. Moreover, the outcome with dengue virus type 2 [11] was inactive. On Genome polyprotein, this compound displayed a half-inhibitory concentration (IC50) of 13.5 µM.

As to `CN1C[C@@H]2C[C@H](C1=S)c1cccc(=O)n1C2`, the outcome in the data set on dengue virus type 2 [1] was Active. Moreover, the EC50 is 670 nM in the data set with dengue virus type 2 [2]; 5 nM with dengue virus type 2 [4]; more than 10 µM in the data set on dengue virus type 2 [5]; 20 nM in the data set with dengue virus type 2 [13]; 2 nM in the data set with dengue virus type 2 [14]; 100 nM in the data set with dengue virus type 2 [15]. Further, the Activity was 95% with dengue virus type 2 [3], more than 50% with dengue virus type 2 [7], less than 40% in the data set with dengue virus type 2 [10] and more than 60% in the data set with dengue virus type 2 [11]. Further, the CC50 in data set [6] and in data set [9] was more than 50 µM throughout. Besides, the selectivity ratio in [8] is more than 25000; in data set [12] it was more than 10000. Further, inhibition on Genome polyprotein was half-maximal at 2.76 µM (IC50).

Turning to `CN1C[C@@H]2C[C@H](C1=S)c1cccc(=S)n1C2`, in the data set with dengue virus type 2 [1], the outcome was Active. Besides, the Activity in the data set on dengue virus type 2 [3] is reported as 61%.

Take `CN1C[C@H]2C[C@H](Cn3c2cccc3=O)C1=S`: in the data set with dengue virus type 2 [1], the result was Active. In addition, the Activity in the data set with dengue virus type 2 [3] is listed as 64.9%.

As for `CN1C[C@H]2C[C@H](Cn3c2cccc3=S)C1=S`, the result in the data set with dengue virus type 2 [1] was Active. Also, in the data set on dengue virus type 2 [3], the Activity stood at 60%.
